Data taken from patent US20220025003A1, “REAGENTS AND METHODS FOR CONTROLLING PROTEIN FUNCTION AND INTERACTION” (University of Washington, priority 2018, published 2022).

What was measured:
NS3a* = biological target: T1, NS3a* (Hepatitis C virus genotype 1a, UniProt P27958, C1073S/C1078L/C1185S/I1043Q/I1044E/I1098T/L1039E/L1040E/L1047Q/L1179I/N1200S/P1112Q/Q1106K/T1100M/T1173A); assay: Fluorescence polarization binding assay (FB50) with FAM-ANR
T1 construct: His6-NS3a; made in house; host or cells: E. coli BL21 (DE3)
Procedure: (§1) The affinities of the NS3a variants for ANR were determined using a fluorescence polarization assay. Fluorescently labeled ANR (FAM-ANR, FIG. 5B) was obtained as a crude mixture from GenScript™ and purified by HPLC. Titrations of recombinant NS3a variants (3-fold serial dilutions, starting at 5 μM) were diluted in FP-Buffer (50 mM HEPES, pH 7.8, 100 mM NaCl, 5 mM DTT, 1% Glycerol, 0.01% Tween, 5% v/v DMSO). These dilutions were added to a wells containing FAM-ANR (final concentration=10 nM). FAM-ANR/NS3a solutions were incubated at room temperature in the dark for 1 hour. Fluorescence polarization was measured on a Perkin Elmer EnVision™ fluorometer (excitation, 495 nm; emission 520 nm). All measurements were carried out in black 96-well plates (Corning, product #: 3720) and run in triplicate. Anisotropy values were obtained and a nonlinear regression model was used to determine binding constants in GraphPad™ Prism.

NS3a = biological target: T2, NS3a (Hepatitis C virus genotype 1b, UniProt Q9WMX2, A1176V/E1056D/L1047A/L1120M/Q1112P/R1052K/V1062L/V1196I); assay: as above
T2 construct: Avi-His6-NS3a; the text calls the FP protein non-biotinylated) (N); made in house; host or cells: E. coli BL21 (DE3)
Procedure: as §1

NS3a protease = biological target: T3, NS3a protease (Hepatitis C virus genotype 1b, UniProt Q9WMX2, A1176V/C1042I/E1056D/L1047A/L1120M/Q1112P/R1052K/V1062L/V1196I); assay: NS3a protease inhibition FRET assay; format: biochemical; settings: ANR-GST fusion, FRET-based protease assay
T3 construct: SNAPtag-NS3a-His6; made in house; host or cells: E. coli BL21(DE3)
Procedure: The potency of ANR against NS3a protease was determined via a FRET assay. Titrations of ANR-GST (3-fold serial dilutions starting at 10 μM) were added to a black 96-well plate (Corning, product number 3720) containing 50 nM SNAPtag-NS3a. Reactions were incubated with NS3a-SNAPtag at room temperature for 1 hour. To each well was simultaneously added substrate M-2235 (Bachem) to a final concentration of 5 μM and reactions were monitored by measuring the fluorescence intensity every minute for 30 minutes at 22° C. on a Perkin Elmer EnVision™ fluorometer (excitation, 360 nm; emission 460 nm). Each measurement was carried out in triplicate. Slopes of the fluorescence increase were compared to a no-protease control. A nonlinear regression model was used to fit curves using GraphPad™ Prism.

[1] = system: RAS/ERK pathway in HEK293 cells; assay: Activation of NS3a-CDAR, phospho-ERK blot; format: cell-based; settings: 10 μM drug, 60 min
Procedure: 18-24 hours prior to transfection, 3.0×10^5 HEK293 cells were plated onto poly-D-lysine 12 well plates. Immediately prior to transfection, media was aspirated and cells were washed with 1 mL of pre-warmed (37° C.) PBS, then serum starved with FBS-free DMEM. Following serum starvation, cells were transfected with 1 μg of FLAG-tagged NS3a-CDAR, BH3-NS3a-CDAR, or an empty pCDNA5 vector. Transfected cells were allowed to serum stave for 18-20 hours prior to drug treatment. For drug treatment, serum-free media was prepared with DMSO or 10 μM of a drug. Media was aspirated, washed once with pre-warmed DPBS, then treated with drug/DMSO media for the requisite amount of time. Media was subsequently aspirated and the cells were washed twice with 1 mL chilled PBS, then lysed with 75 μL Mod. RIPA buffer (50 mM Tris, pH 7.8, 1% IGEPAL CA-630, 150 mM NaCl, 1 mM EDTA, 2 mM Na3VO4, 30 mM NaF, Pierce Protease Inhibitor Tablet). Cleared lysates were subjected to SDS-PAGE and transferred to nitrocellulose. Blocking and antibody incubations were done in TBS with 0.1% Tween-20 (v/v) and blocking buffer (Odyssey). Primary antibodies were all purchased from Cell Signaling Technologies and were diluted as follows: Total ERK (1:2500, #9107), phosphorylated ERK (1:2500, #4370), FLAG (1:2,500, #D6W5B). Blots were washed three times in TBS with 0.1% Tween-20. Antibody binding was detected by using near-infrared-dye-conjugated secondary antibodies and visualized on the LI-COR Odyssey scanner. Blots were quantified via densitometry with Image Studio (LI-COR).

NS3a in NIH3T3 cells [2] = assay: Confocal microscopy for colocalization analysis (fixed cells); format: cell-based; settings: for DNCR2-EGFP colocalization with mitochondrial Tom20-mCherry-NS3a: 10 μM drug, 1 h
CXCR4 = assay: cells; settings: Homo sapiens, read-out: EC50 (CXCR4 expression)
NS3a in NIH3T3 cells [3] = assay: Confocal microscopy for colocalization analysis (fixed cells); format: cell-based; settings: 10 μM drug, 1 h
Procedure: A Leica SP8× system was used for confocal microscopy. […] TagBFP emission was recorded on a PMT detector, and EGFP and mCherry™ were detected by separate HyD™ detectors.
Colocalization experiments were performed in NIH3T3 cells (Flp-In-3T3, Thermo Fisher Scientific). For fixed-cell experiments, cells were plated at 3×10^4 cells/mL on sterile glass coverslides placed in 12-well culture plates. […] One day after transfection, cells were treated with drug or DMSO and fixed. Drug additions were performed by exchanging the media for DMEM+10% v/v FBS plus drug. To fix, cells were washed once with DPBS (Thermo Fisher Scientific), then incubated with 4% v/v paraformaldehyde in DPBS for 15 minutes. After washing twice with DPBS, coverslides with cells were removed from the plate and mounted on glass slides using Fluoromount-G (SouthernBiotech).
Colocalization of NS3a and DNCR1 at the plasma membrane, nucleus, mitochondria and Golgi was performed with two sets of constructs, with either NS3a or DNCR1 as the immobilized component. mCherry™-NS3a was used with Tom20-DNCR1-EGFP, DNCR1-EGFP-Giantin, and 3×NLS-DNCR1-EGFP. […] Colocalization was analyzed after 1 h of 10 μM drug or equal volume DMSO treatment.
All images were analyzed using ImageJ. […] EGFP fluorescence was quantified in the ROI over the timecourse. […] The cytoplasmic fluorescence was normalized to the value in the first and last frame for each cell. […]

HeLa cells = assay: Widefield microscopy for signaling phenotype analysis; format: cell-based; settings: EGFP-DNCR2-TIAM, BFP-GNCR1-LARG and NS3a-CAAX in HeLa cells
Procedure: Widefield images were collected in an environmental chamber with humidity control, 37° C., and 5% CO2 on a Leica DMi8 automated fluorescence microscope. Cells were plated on glass-bottomed 96-well plates (Cellvis). Plates were treated with 10 μg/mL bovine fibronectin (Sigma Aldrich) for 1 hour and washed once with PBS.
The cell line used was TRex™-HeLa (ThermoFisher Scientific), into which Lifeact-mCherry™ was stably integrated into the doxycycline-regulated Flp-In site by co-transfection of the pCDNA5-FRT/TO-Lifeact-mCherry™ vector with the Flp recombinase plasmid pOG44 (ThermoFisher Scientific) according to manufacturer's protocols. Lifeact-mCherry™ was induced by addition of 1 μg/mL doxycycline to culture media. For expression of signaling effector proteins, 1 day prior to imaging, 5×10^6 cells were transiently transfected with 10 μg DNA in a 100 μL electroporation tip using a Neon transfection system (ThermoFisher Scientific) according to manufacturer's recommendations for HeLa cells. 5×10^3 cells were plated in each well of the 96-well plate used for imaging. Cells recovered in complete DMEM with 10% FBS overnight. […] For Rac/Rho regulation, the construct PB-NS3a-CAAX-IRES-EGFP-DNCR2-TIAM-P2a-BFP-GNCR1-LARG was used, with images collected for the mCherry™ (Lifeact) and EGFP (DNCR2-TIAM) channels. […]

[4] = system: GFP reporter gene in HEK293T cells; assay: dciCas9-mediated transcription; format: cell-based; settings: 10 μM A115 and 10 μM grazoprevir
Procedure: For FACS analysis, 10,000 single cell events were collected for each of the samples run. […] The gathered FACS data were analyzed using FlowJo (v.10.1).

GFP, CD95 and CXCR4 = assay: 3-gene experiment (GFP, CD95, CXCR4) by RT-qPCR; format: cell-based; settings: 10 μM danoprevir, 1 μM grazoprevir, 1 μM asunaprevir
Description: Cells were harvested on day 5 as described above for other samples to be analyzed to qPCR.

[5] = system: mCherry reporter gene in HEK293T cells; assay: Chemically-disruptable Gal4(DBD)-NS3a(H1)/ANR-VPR transcriptional regulation; format: cell-based; settings: 1 μM drug, 24 hours
Procedure: Cells were subsequently transfected with 1 μg of the Gal4 reporter plasmid (UAS-mCherry™/CMV-Gal4-NS3a(H1)-P2A-ANR-Myc-BFP-VPR-NLS) in OptiMem™. […] Supernatant was subsequently removed and the cells were re-suspended in 400 μL DPBS and analyzed on a FACS LSRII (BD Biosciences).
For Gal4/NS3a-CDP mediated transcriptional activation FACS experiments, 10,000 single cell events were collected for each of the samples run. […] The gathered FACS data were analyzed using FlowJo™ (v.10.1).

Compound | affinity for NS3a* (NS3a*) | binding to NS3a (NS3a) | apparent IC50 against NS3a activity (NS3a protease) | phospho-ERK levels in cells expressing NS3a-CDAR [1] | Colocalization of DNCR2-EGFP and GNCR1-BFP with NS3a-mCherry-CAAX (NS3a in NIH3T3 cells [2]; 5 μM drug) | Colocalization of NS3a-mCherry with GNCR1-BFP-CAAX or Tom20-DNCR2-EGFP (NS3a in NIH3T3 cells [2]; 5 μM drug, 15 min) | DNCR2-EGFP colocalization with mitochondrial Tom20-mCherry-NS3a (NS3a in NIH3T3 cells [2]) | EC50 (CXCR4) | Colocalization of DNCR1-EGFP and NS3a-mCherry (NS3a in NIH3T3 cells [3]) | cell shape change (HeLa cells) | GFP expression on co-administration with A115 [4] | transcriptional output state in 3-gene system (GFP, CD95 and CXCR4) | mCherry expression after drug treatment [5]
genetically-encoded peptide inhibitor of NS3a, GELDELVYLLDGPGYDPIHSD (SEQ ID NO:14); tested as ANR-GST and FAM-ANR | very low affinity | binds tightly | less than the concentration of NS3a protease used in the assay |  |  |  |  |  |  |  |  |  | 
C=C[C@@H]1C[C@]1(NC(=O)[C@@H]1C[C@@H]2CN1C(=O)[C@H](C(C)(C)C)NC(=O)O[C@@H]1C[C@H]1CCCCCc1nc3ccc(OC)cc3nc1O2)C(=O)NS(=O)(=O)C1CC1 [grazoprevir] |  |  |  | robust increase in phospho-ERK levels | GNCR1/NS3a colocalization | exclusively colocalized NS3a-mCherry™ to plasma membrane-targeted GNCR1-BFP-CAAX | neither grazoprevir nor asunaprevir induced DNCR2-EGFP colocalization | 0.16 ± 0.03 nM | much lower correlation | caused cell contraction | reversed | CXCR4 expression under control of GNCR1 | decreased mCherry™ expression to background levels
C=C[C@@H]1C[C@]1(NC(=O)[C@@H]1C[C@@H](Oc2ncc(OC)c3ccc(Cl)cc23)CN1C(=O)[C@@H](NC(=O)OC(C)(C)C)C(C)(C)C)C(=O)NS(=O)(=O)C1CC1 [asunaprevir] |  |  |  | robust increase in phospho-ERK levels |  |  | neither grazoprevir nor asunaprevir induced DNCR2-EGFP colocalization |  | much lower correlation |  |  | no gene expression | 
